# Measurements from paper PMC8595511 (Experimental eye research, 2021).
# Columns and labels:
# [1] = target: T1, recombinant mouse retbindin (mRTBN, RTBDN) (Mus musculus, UniProt Q8QZY4); assay: bio-layer interferometry; assay type: binding; details: PBS
# T1 sequence (Q8QZY4 32-247): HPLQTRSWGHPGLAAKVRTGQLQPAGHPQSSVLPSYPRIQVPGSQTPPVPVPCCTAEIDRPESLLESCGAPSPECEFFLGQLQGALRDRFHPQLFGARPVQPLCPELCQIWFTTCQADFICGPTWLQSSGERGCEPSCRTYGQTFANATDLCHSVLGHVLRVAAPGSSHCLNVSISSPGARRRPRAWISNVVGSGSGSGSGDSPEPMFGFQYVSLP
# [2] = target: Bovine Interphotoreceptor Retinoid Binding Protein (bIRBP) (Bos taurus, UniProt P12661); assay: bio-layer interferometry; details: PBS; ligand predissolved in DMSO, 1-10 μM
# Sequence of Bovine Interphotoreceptor Retinoid Binding Protein (bIRBP) (P12661 23-1286): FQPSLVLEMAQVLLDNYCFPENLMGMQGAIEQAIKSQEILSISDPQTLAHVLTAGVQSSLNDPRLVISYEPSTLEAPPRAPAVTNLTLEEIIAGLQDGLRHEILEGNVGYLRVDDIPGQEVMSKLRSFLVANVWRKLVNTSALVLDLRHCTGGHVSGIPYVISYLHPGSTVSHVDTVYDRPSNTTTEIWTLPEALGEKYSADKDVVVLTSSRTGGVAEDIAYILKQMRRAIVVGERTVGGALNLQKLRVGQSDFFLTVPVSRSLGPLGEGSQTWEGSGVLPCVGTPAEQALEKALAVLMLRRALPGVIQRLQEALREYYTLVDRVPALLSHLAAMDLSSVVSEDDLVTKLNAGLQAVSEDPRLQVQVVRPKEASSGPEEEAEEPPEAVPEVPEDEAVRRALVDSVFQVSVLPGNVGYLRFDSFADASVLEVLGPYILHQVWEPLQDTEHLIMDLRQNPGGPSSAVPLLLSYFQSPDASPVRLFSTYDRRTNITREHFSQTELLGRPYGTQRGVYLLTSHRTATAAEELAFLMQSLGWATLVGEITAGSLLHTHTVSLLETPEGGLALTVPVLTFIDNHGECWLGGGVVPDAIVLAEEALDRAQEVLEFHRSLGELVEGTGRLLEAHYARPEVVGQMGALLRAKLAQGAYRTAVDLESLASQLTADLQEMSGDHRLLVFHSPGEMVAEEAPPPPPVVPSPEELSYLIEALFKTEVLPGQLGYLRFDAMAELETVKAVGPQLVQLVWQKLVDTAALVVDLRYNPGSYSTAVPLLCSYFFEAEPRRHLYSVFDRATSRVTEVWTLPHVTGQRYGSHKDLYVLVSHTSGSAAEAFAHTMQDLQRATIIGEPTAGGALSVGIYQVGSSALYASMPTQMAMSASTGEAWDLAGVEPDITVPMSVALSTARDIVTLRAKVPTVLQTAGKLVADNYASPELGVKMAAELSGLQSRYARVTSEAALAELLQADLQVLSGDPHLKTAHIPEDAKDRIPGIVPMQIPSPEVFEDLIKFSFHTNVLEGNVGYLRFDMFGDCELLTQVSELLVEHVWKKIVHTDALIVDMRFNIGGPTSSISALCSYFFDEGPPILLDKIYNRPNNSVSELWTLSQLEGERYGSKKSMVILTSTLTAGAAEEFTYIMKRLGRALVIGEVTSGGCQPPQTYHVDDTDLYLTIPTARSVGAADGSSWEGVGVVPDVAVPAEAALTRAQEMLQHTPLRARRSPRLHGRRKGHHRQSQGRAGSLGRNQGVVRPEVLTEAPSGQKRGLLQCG
SMILES,Dissociation constant [1],Dissociation constant ([1]; 1-100 μM),also measured
CC1=C(/C=C/C(C)=C\C=C\C(C)=C\C=O)C(C)(C)CCC1 [9-cis retinal],"Dissociation constants for retinoids, flavins and fluorescein (as a control) on retbindin",–,–
CC1=C(/C=C/C(C)=C\C=C\C(C)=C\C(=O)O)C(C)(C)CCC1 [9-cis retinoic acid],"Dissociation constants for retinoids, flavins and fluorescein (as a control) on retbindin",–,–
CC1=C(/C=C/C(C)=C/C=C\C(C)=C\C=O)C(C)(C)CCC1 [11-cis retinal],–,–,"Dissociation constant ([1]; ligand predissolved in DMSO, 1-10 μM): the protein showed significant affinity for several retinoids, particularly for 11-cis retinal; Dissociation constant [2]: very similar to the well characterized 11-cis retinal transport protein IRBP"
CC1=C(/C=C/C(C)=C/C=C\C(C)=C\C(=O)O)C(C)(C)CCC1 [11-cis retinoic acid],"Dissociation constants for retinoids, flavins and fluorescein (as a control) on retbindin",–,–
Cc1cc2nc3c(=O)[nH]c(=O)nc-3n(C[C@H](O)[C@H](O)[C@H](O)COP(=O)(O)O)c2cc1C [FMN],–,"Dissociation constants for retinoids, flavins and fluorescein (as a control) on retbindin",–
CC1=C(/C=C/C(C)=C/C=C/C(C)=C/C=O)C(C)(C)CCC1 [all trans retinal],"Dissociation constants for retinoids, flavins and fluorescein (as a control) on retbindin",–,–
"O=C1OC2(c3ccc(O)cc3Oc3cc(O)ccc32)c2ccccc21 [fluorescein, reference compound]",–,"Dissociation constants for retinoids, flavins and fluorescein (as a control) on retbindin",–
Cc1cc2nc3c(=O)[nH]c(=O)nc-3n(C[C@H](O)[C@H](O)[C@H](O)CO)c2cc1C [riboflavin],–,"Dissociation constants for retinoids, flavins and fluorescein (as a control) on retbindin",–
